Measured values reported in PMC7806714, “Statins for the prevention of proliferative vitreoretinopathy: cellular responses in cultured cells and clinical statin concentrations in the vitreous” (Scientific Reports, 2021).

Key:
[1] = UPLC-MS/MS statin and metabolite concentrations in vitreous of vitrectomy patients on oral statins; format: in vivo, human
Procedure: The study was conducted according to the tenets of the Declaration of Helsinki, and was approved by the Institutional Review Board and Ethical committee of Helsinki University Central Hospital. Twenty patients were enrolled; fifteen with per oral statin treatment and five controls. Signed informed consent was obtained from each participant prior to the vitreous sampling. Confidentiality of the patient records was maintained when the clinical data were entered into a computer-based standardized data entry for analysis. Sixteen patients were being operated due to PDR; of these, five patients had also Tractional Retinal Detachment (TRD); two patients were operated due to RRD, one due to age-related epiretinal fibrosis (pucker), and one due to a macular hole (Supplementary Table S2). […] All vitrectomies were performed by the recruiting vitreoretinal surgeon (SL). […] The samples were collected by manual aspiration into a syringe via the vitrectomy with the cutting function activated. Sample aliquots were transferred into sterile 1.5 mL microcentrifuge tubes (Freemont, CA, USA) and immediately frozen and stored at − 70 °C until laboratory analysis. […] All reference compounds and internal standards were purchased from Toronto Research Chemicals (Toronto, Canada). Samples (100 µl) were divided into two aliquots and kept at − 80 °C prior to analysis. […] Homogenizer blocks were pre-cooled by placing them at − 20 °C. […] Supernatants (120 µl) were pipetted into analytical vials and the concentrations of the statins were measured with Ultra-high Pressure Liquid Chromatography—tandem Mass Spectrometry (UPLC-MS/MS) technique. The same pre-treatment protocol was used to prepare calibration curves and quality control samples but homogenized and filtered porcine vitreous were used as a matrix instead of human vitreous. A minimum of six calibration curve concentrations was used for quantitation of the compounds. Two parallel calibration curve sets included all eleven analytes and four deuterated internal standards. Three quality control samples in three parallel sets were used to validate the method. The linear range varied from approximately 0.004 to 10 ng/mL depending on the analyte. Limit of quantitation was set to the smallest calibration curve point of each drug. Each sample was analysed twice and the average of these values was designated as the concentration of the sample. […] For rosuvastatin, two metabolites were analysed: rosuvastatin lactone and N-desmethyl rosuvastatin lactone. Rosuvastatin D6 was used as an internal standard. The parent drug, its metabolites and internal standard were analysed from the same sample in each case. Liquid chromatography separation was carried out using a Waters Acquity UPLC instrument (Waters, MA, USA) coupled with Waters HSS T3 C18 (2.1 × 100 mm, 1.8 µm) column at 40 °C. The mobile phase consisted of 0.1% formic acid in ultrapure water (A) and 100% of LC–MS grade acetonitrile (B). […] The flow rate was set to 0.3 mL/min and injection volume 1.5 µl. After every three samples, a solvent blank was run to control for any carry over. Mass spectrometry measurements were carried out using a Waters Xevo Triple Quadruple mass spectrometer (TQ-S) equipped with an ESI source. […] The source parameters were as follows: Capillary voltage 2.8 kV, source temperature 150 °C and desolvation temperature 500 °C. Nitrogen (Aga, Helsinki, Finland) was used as a desolvation gas (800 l/h), a cone gas (150 l/h) and a nebulizer gas (7 bar). Argon (Aga, Helsinki, Finland) was used as a collision gas (0.15 mL/min). The Multiple Reaction Monitoring (MRM) mode was used for quantification. Precursor and fragment ions, as well as other optimized parameters are listed in Supplementary Table S3.

[2] = Calculated average steady-state plasma (Eq. 1) and expected vitreal concentrations (Eq. 3); parameters: species or system human; settings: for Calc. Cv: expected vitreal, Eq. 3; for Css,av: plasma, Eq. 1
Procedure: The concentrations of statins and their metabolites in the vitreous were analysed (see above) and expressed as ng/mL concentrations. These concentrations were compared to published statin concentrations in plasma. […] Maximum concentrations in plasma and the area under the concentration vs time curve values were collected. The expected average statin concentrations in plasma during multiple dose treatment were calculated for the doses that the patients received in our study (Eq. 1):1 Css,av=AUCsingledose/τ where τ is the time interval between doses. The drug concentrations in plasma (C, Cmax, Css, av) include both unbound (Cu) and protein-bound drug. The values for protein binding were obtained from the summary of drug product characteristics for each statin. The free fraction of statin in plasma was calculated based on Eq. (2):2 fu=CuC
The expected drug concentrations in the patients’ vitreous samples were calculated according to Eq. (3)3 Cv=fu×Css,av
Equation (3) assumes that the vitreal drug concentrations equilibrate with the unbound drug concentrations in plasma, because only free drug is expected to cross the blood-ocular barriers.

[3] = system: MCP-1; test: ELISA of LPS-induced MCP-1 release from ARPE-19 cells; settings: 24 h prior to LPS
[4] = system: ARPE-19 cells; test: LDH release assay (cell membrane integrity); format: cell-based, human; settings: with and without LPS; Supplementary Fig. S3
Procedure: Cell viability was assessed by determining the amount of LDH enzyme from culture media using a commercial kit (Promega Corporation, USA) according to the manufacturer’s protocol. This assay provides information about the integrity of the plasma membranes of the cells (high LDH levels meaning cell damage). In addition, the cell viability was examined with MTT assay, as described previously. In viable cells, the mitochondrial succinate dehydrogenase enzyme can metabolize the MTT dye into formazan that absorbs light at the 550 nm wavelength.

[5] = system: IL-8; test: ELISA of LPS-induced IL-8 release from ARPE-19 cells; settings: 24 h prior to LPS
[6] = system: IL-6; test: ELISA of LPS-induced IL-6 release from ARPE-19 cells; settings: then LPS
[7] = patient 397, PDR, oral rosuvastatin 20 mg
[8] = patient 412, PDR, oral rosuvastatin 20 mg
[9] = patient 352, PDR, TDR, oral atorvastatin 20 mg
[10] = patient 355, PDR, oral atorvastatin 10 mg
[11] = patient 368, PDR, oral atorvastatin 40 mg
[12] = patient 430, PDR, oral atorvastatin 20 mg
[13] = patient 429, RRD, oral atorvastatin 20 mg

CCC(C)(C)C(=O)O[C@H]1C[C@@H](C)C=C2C=C[C@H](C)[C@H](CC[C@@H](O)C[C@@H](O)CC(=O)O)[C@H]21 [Sim acid, simvastatin acid]
Concentration in vitreous sample ([1]; patient 347, PDR, TDR, oral simvastatin 40 mg): 0.039 ng/mL
Concentration in vitreous sample ([1]; patient 370, PDR, oral simvastatin 40 mg): 0.019 ng/mL
Concentration in vitreous sample ([1]; patient A101, PDR, TDR, oral simvastatin 40 mg): 0.006 ng/mL

CC(C)c1nc(NS(C)(=O)=O)nc(-c2ccc(F)cc2)c1/C=C/[C@@H](O)C[C@@H](O)CC(=O)O [N-desmethyl Rsv, n-desmethyl rosuvastatin]
Concentration in vitreous sample ([1]; patient 371, PDR, dose 0* (control without reported statin treatment)): 0.019 ng/mL
Concentration in vitreous sample [1, 7]: 0.013 ng/mL
Concentration in vitreous sample [1, 8]: 0.026 ng/mL

CC(C)c1c(C(=O)Nc2ccccc2O)c(-c2ccccc2)c(-c2ccc(F)cc2)n1CCC(O)CC(O)CC(=O)O (centres unmarked) [2-OH Atv, 2-OH atorvastatin]
Concentration in vitreous sample [1, 9]: 0.047 ng/mL
Concentration in vitreous sample [1, 10]: 0.071 ng/mL
Concentration in vitreous sample [1, 11]: 0.176 ng/mL
Concentration in vitreous sample [1, 12]: 0.099 ng/mL

CC(C)c1c(C(=O)Nc2ccc(O)cc2)c(-c2ccccc2)c(-c2ccc(F)cc2)n1CCC1CC(O)CC(=O)O1 (centres unmarked) [4-OH Atv lactone, 4-OH atorvastatin lactone]
Concentration in vitreous sample [1, 10]: 0.012 ng/mL
Concentration in vitreous sample [1, 11]: 0.039 ng/mL
Concentration in vitreous sample [1, 13]: 0.008 ng/mL
Concentration in vitreous sample [1, 12]: 0.017 ng/mL

CC(C)c1nc(N(C)S(C)(=O)=O)nc(-c2ccc(F)cc2)c1/C=C/[C@@H]1C[C@@H](O)CC(=O)O1 [Rsv lactone, rosuvastatin lactone]
Concentration in vitreous sample [1, 7]: 0.011 ng/mL
Concentration in vitreous sample [1, 8]: 0.025 ng/mL

CC(C)c1c(C(=O)Nc2ccc(O)cc2)c(-c2ccccc2)c(-c2ccc(F)cc2)n1CC[C@@H](O)C[C@@H](O)CC(=O)O [4-OH Atv, 4-OH atorvastatin]
Concentration in vitreous sample [1, 9]: 0.022 ng/mL
Concentration in vitreous sample [1, 10]: 0.057 ng/mL
Concentration in vitreous sample [1, 11]: 0.209 ng/mL
Concentration in vitreous sample [1, 13]: 0.022 ng/mL
Concentration in vitreous sample [1, 12]: 0.12 ng/mL

CC(C)c1c(C(=O)Nc2ccccc2O)c(-c2ccccc2)c(-c2ccc(F)cc2)n1CCC1CC(O)CC(=O)O1 (centres unmarked) [2-OH Atv lactone, 2-OH atorvastatin lactone]
Concentration in vitreous sample [1, 9]: 0.023 ng/mL
Concentration in vitreous sample [1, 10]: 0.029 ng/mL
Concentration in vitreous sample [1, 11]: 0.063 ng/mL
Concentration in vitreous sample [1, 13]: 0.023 ng/mL
Concentration in vitreous sample [1, 12]: 0.032 ng/mL

CC(C)c1c(C(=O)Nc2ccccc2)c(-c2ccccc2)c(-c2ccc(F)cc2)n1CC[C@@H]1C[C@@H](O)CC(=O)O1 [Atv lactone, atorvastatin lactone]
Concentration in vitreous sample [1, 9]: 0.012 ng/mL
Concentration in vitreous sample [1, 10]: 0.035 ng/mL
Concentration in vitreous sample [1, 11]: 0.089 ng/mL
Concentration in vitreous sample [1, 13]: 0.016 ng/mL
Concentration in vitreous sample [1, 12]: 0.062 ng/mL

CC(C)c1c(C(=O)Nc2ccccc2)c(-c2ccccc2)c(-c2ccc(F)cc2)n1CC[C@@H](O)C[C@@H](O)CC(=O)O [Atorvastatin]
Calc. Cv ([2]; 10 mg/d, India study [22]): 0.046 ng/mL
Calc. Cv ([2]; 10 mg/d, Jordan study [21]): 0.024 ng/mL
Calc. Cv ([2]; 10 mg/d, Turkey study [23]): 0.098 ng/mL
Calc. Cv ([2]; 20 mg/d, China study [25]): 0.037 ng/mL
Calc. Cv ([2]; 20 mg/d, UK study [26]): 0.153 ng/mL
Calc. Cv ([2]; 20 mg/d, USA study [24]): 0.049 ng/mL
Calc. Cv ([2]; 40 mg/d, Finland study [28]): 0.045 ng/mL
Calc. Cv ([2]; 40 mg/d, Finland study [29]): 0.051 ng/mL
Calc. Cv ([2]; 40 mg/d, USA study [27]): 0.082 ng/mL
Css,av ([2]; 10 mg/d, Jordan study [21]): 0.49 ng/mL
Css,av ([2]; 20 mg/d, China study [25]): 1.85 ng/mL
Css,av ([2]; 20 mg/d, UK study [26]): 7.63 ng/mL
Css,av ([2]; 40 mg/d, Finland study [28]): 2.26 ng/mL
Css,av ([2]; 40 mg/d, Finland study [29]): 2.56 ng/mL
Css,av ([2]; 40 mg/d, USA study [27]): 4.11 ng/mL
LPS-induced release of MCP-1 ([3]; 5 µM): reduced
LPS-induced release of MCP-1 ([3]; 10 µM): reduced
Tolerance by ARPE-19 cells (LDH and MTT) [4]: well tolerated
LPS-induced release of IL-8 ([5]; 5 µM): reduced
LPS-induced release of IL-8 ([5]; 10 µM): reduced
times lower secretion of IL-6 compared to the solvent control ([6]; 5 µM pre-treatment for 24 h): 1.5 times
times lower secretion of IL-6 compared to the solvent control ([6]; 10 µM pre-treatment for 24 h): 1.6 times
